Test results published in publication PMC10914731, “Homo-BacPROTAC-induced degradation of ClpC1 as a strategy against drug-resistant mycobacteria” (Nature Communications, 2024).
≈ marks a conversion by molar mass, not a printed value. Where “and” joins values, the source holds several entries; their conditions need not be identical. Identical values can stand only once. Like-named read-outs stand apart in the source and are kept apart here. Where a SMILES comes first, the peptide text is derived from it. [ ]: non-standard residue; d: D form. NMeLeu(5-OH,4R) = CN[C@@H](C[C@@H](C)CO)C(=O)O; Phe(βR-OMe) = CO[C@H](c1ccccc1)[C@H](N)C(=O)O; Trp(1-Me) = Cn1cc(C[C@H](N)C(=O)O)c2ccccc21; NMeL = CN[C@@H](CC(C)C)C(=O)O; Pra = C#CC[C@H](N)C(=O)O

Assays:
[1] = target: ClpC1 NTD protein (M. tuberculosis) (Mycobacterium tuberculosis, UniProt P9WPC9); experiment: biochemical; type: binding; conditions: SPR
[2] = in vitro; conditions: human
In short: (§1)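 Values are bidirectional Caco-2 apparent permeabilities, P(A−B) and P(B−A), given in 10^-6 cm s-1. The efflux ratio divides P(B−A) by P(A−B), and intrinsic permeability averages the two directions.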

[3] = system: Caco-2 monolayers; experiment: in vitro
In short: as §1

[4] = Microsomal stability, human; type: in vitro ADME
In short: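 Steps: incubate compound at 1 µmol/l with liver microsomes (0.5 mg/ml) plus 1 mM NADPH in pH 7.5 Tris-HCl buffer containing MgCl2 at 37 °C; stop aliquots over time with acetonitrile; centrifuge and measure remaining compound by LC-MS/MS; fit first-order decay and convert half-life to %Qh.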

[5] = system: M. tuberculosis H37Rv (ATCC 27294); experiment: microbe, parasite or virus in culture; type: cell-based
[6] = system: Msm 607; experiment: microbe, parasite or virus in culture; type: cell-based
[7] = system: Msm 700084; experiment: microbe, parasite or virus in culture; type: cell-based
[8] = system: Mtb (katG del) ATCC 35822; experiment: microbe, parasite or virus in culture; type: cell-based; conditions: Mycobacterium tuberculosis
[9] = system: Mtb # 11291; experiment: microbe, parasite or virus in culture; type: cell-based; conditions: single well replicates
[10] = system: Mtb # 8673; experiment: microbe, parasite or virus in culture; type: cell-based
[11] = system: Enterobacter cloacae; experiment: MIC ESKAPES panel, Enterobacter cloacae; type: cell-based
In short: (§2)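 CLSI broth microdilution was run in Mueller Hinton broth with an inoculum of 3–7 × 10^5 cfu/ml at 37 °C. Turbidity was read on day 2; clear wells indicated growth inhibition.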

[12] = system: Salmonella typhimurium; experiment: MIC ESKAPES panel, Salmonella typhimurium; type: cell-based
In short: as §2

[13] = system: Mycobacterium avium; experiment: microbe, parasite or virus in culture; type: cell-based
[14] = system: Mycobacterium abscessus; experiment: microbe, parasite or virus in culture; type: cell-based
[15] = target: His6-tagged ClpC1-NTD substrate, M. smegmatis ClpC1P1P2 (UniProt A0R574+P9WPC9); experiment: biochemical; type: biochemical; conditions: for % Response: ClpC1-NTD/ClpP1P2 peak area normalized to DMSO, well replicates; for DC50: Msm
[16] = Gram-Negative Bacteria, replicates 1-3
[17] = Experiment 2, three replicate columns

Sequence of His6-tagged ClpC1-NTD substrate, M. smegmatis ClpC1P1P2 (P9WPC9 1-156, looked up, natural form): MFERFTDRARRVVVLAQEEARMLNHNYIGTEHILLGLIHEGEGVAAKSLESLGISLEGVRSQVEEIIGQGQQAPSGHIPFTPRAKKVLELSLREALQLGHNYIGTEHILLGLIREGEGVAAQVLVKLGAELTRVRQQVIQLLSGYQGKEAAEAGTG
Sequence of His6-tagged ClpC1-NTD substrate, M. smegmatis ClpC1P1P2 (A0R574 whole entry): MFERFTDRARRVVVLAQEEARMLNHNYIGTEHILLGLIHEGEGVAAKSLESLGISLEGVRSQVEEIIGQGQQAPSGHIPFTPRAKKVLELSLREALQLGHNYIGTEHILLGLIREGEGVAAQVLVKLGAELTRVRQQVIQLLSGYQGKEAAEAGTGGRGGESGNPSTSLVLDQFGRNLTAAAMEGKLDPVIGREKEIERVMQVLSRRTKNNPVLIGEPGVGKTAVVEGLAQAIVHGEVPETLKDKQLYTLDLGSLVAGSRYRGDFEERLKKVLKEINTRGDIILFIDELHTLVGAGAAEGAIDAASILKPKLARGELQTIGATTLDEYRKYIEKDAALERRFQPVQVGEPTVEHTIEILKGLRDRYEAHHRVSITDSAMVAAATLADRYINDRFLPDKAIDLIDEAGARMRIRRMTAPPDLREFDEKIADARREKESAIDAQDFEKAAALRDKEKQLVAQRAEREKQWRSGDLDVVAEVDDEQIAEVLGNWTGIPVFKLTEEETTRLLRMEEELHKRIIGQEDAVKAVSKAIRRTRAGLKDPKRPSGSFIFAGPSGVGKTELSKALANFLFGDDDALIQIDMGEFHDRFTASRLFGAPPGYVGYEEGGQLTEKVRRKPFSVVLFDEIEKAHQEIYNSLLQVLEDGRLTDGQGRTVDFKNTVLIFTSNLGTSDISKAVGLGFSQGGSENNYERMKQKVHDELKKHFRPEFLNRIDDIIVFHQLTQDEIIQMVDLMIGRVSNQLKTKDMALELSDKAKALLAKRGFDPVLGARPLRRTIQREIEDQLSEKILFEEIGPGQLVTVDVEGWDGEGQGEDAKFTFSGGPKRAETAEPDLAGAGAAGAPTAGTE
Sequence of ClpC1 NTD protein (M. tuberculosis) (P9WPC9 1-156, looked up, natural form): as the sequence (P9WPC9 1-156, looked up, natural form) above

C#CC[C@@H]1NC(=O)[C@H](CC(C)C)N(C)C(=O)[C@H](C(C)C)NC(=O)[C@H]([C@H](OC)c2ccccc2)NC(=O)[C@H](C)NC(=O)[C@H](C[C@@H](C)CO)N(C)C(=O)[C@H](Cc2cn(C)c3ccccc23)NC1=O [Compound 10] (cyclo(A[Phe(βR-OMe)]V[NMeL][Pra][Trp(1-Me)][NMeLeu(5-OH,4R)]))
Kd ([1]; individual measurements (source data), read-out: KD ClpC1-NTD): 4.65 nM and 4.5 nM and 3.27 nM and 3.4 nM | Kd ([1]; read-out: ClpC1-NTD KD Mean ± SD): 4 ± 0.7 nM | Papp B→A ([2]; Caco-2, CACO permeability PEBA, basolateral to apical): 19 ×10⁻⁶ cm/s | Papp A→B ([2]; Caco-2, Caco-2 permeability P (A-B), apical to basolateral): < 0.1 ×10⁻⁶ cm/s | CACO permeability PEBA ([3]; basolateral to apical): 14 ×10⁻⁶ cm/s | Caco-2 Int. Perm ([3]; mean value of P(A−B) and P(B−A)): 7.1 10-6 cm s-1 | Microsomal Stability Human QH ([4]; Human): >88.400% | Microsomal Stability Human ([4]; clearance in microsomes): > 88 %Qh | MIC ([5]; M. tuberculosis H37Rv 27294, single well replicates, read-out: MIC): 3.125 µM (≈ 2.85 µg/mL) | MIC ([5]; Mycobacterium tuberculosis, M. tuberculosis H37Rv 27294, single well replicates, read-out: MIC): 3.12 µM (≈ 2.85 µg/mL) | MIC ([5]; Mycobacterium tuberculosis, M. tuberculosis H37Rv strain, read-out: MIC Mtb H37Rv Mean ± SD): 3.1 µM (≈ 2.83 µg/mL) | MIC ([5]; Mycobacterium tuberculosis, Mtb H37Rv (Supplementary Table 2), read-out: MIC Mtb): 3.1 µM (≈ 2.83 µg/mL) | MIC ([5]; Mycobacterium tuberculosis, Mtb H37Rv, mean ± SD, n = 3 well replicates, read-out: MIC): 3.1 µM (≈ 2.83 µg/mL) | MIC ([5]; Mycobacterium tuberculosis, Set 1, read-out: MIC (Mtb H37Rv) Set 1): 3.13 µM and 2.85 µg/mL | MIC ([5]; Mycobacterium tuberculosis, Set 2, read-out: MIC (Mtb H37Rv) Set 2): 3.13 µM and 2.85 µg/mL | MIC ([5]; Mycobacterium tuberculosis, Set 3, done at a different day than Set 1 and Set 2, read-out: MIC (Mtb H37Rv) Set 3): 3.13 µM and 2.85 µg/mL | MIC ([5]; Mycobacterium tuberculosis, individual example (Supplementary Table 11), read-out: MIC Mtb H37Rv): 3.1 µM and 2.9 µg/mL | MIC ([5]; Mycobacterium tuberculosis, individual measurements (source data), read-out: Mtb MIC): 3.12 µM (≈ 2.85 µg/mL) | MIC ([5]; Mycobacterium tuberculosis, mean of 3 experiments +/- SD, unit taken from the sets above in the same table, read-out: MIC data (Mtb H37Rv) (+/- SD)): 3.13 µM and 2.85 µg/mL | MIC ([5]; Mycobacterium tuberculosis, single determinations, read-out: Mtb MIC): 3.12 µM (≈ 2.85 µg/mL) | MIC ([5]; individual measurements (source data), read-out: Mtb MIC): 3.125 µM (≈ 2.85 µg/mL) | MIC ([6]; Mycolicibacterium smegmatis, 607, read-out: MIC Msm 607): 3.1 µM (≈ 2.83 µg/mL) | MIC ([6]; Mycolicibacterium smegmatis, 607, read-out: MIC Msm #607, individual example (Supplementary Table 11)): 6.3 µM and 5.7 µg/mL | MIC ([6]; Mycolicibacterium smegmatis, 607, read-out: Msm 607 MIC, single determinations): 3.12 µM (≈ 2.85 µg/mL) | MIC ([6]; Mycolicibacterium smegmatis, ATCC607, Set-1, read-out: MIC (Msm ATCC607) Set-1): 3.12 µM and 2.85 µg/mL | MIC ([6]; Mycolicibacterium smegmatis, ATCC607, Set-2, read-out: MIC (Msm ATCC607) Set-2): 6.25 µM and 5.71 µg/mL | MIC ([6]; Mycolicibacterium smegmatis, ATCC607, Set-3, done at a different day than Set 1 and Set 2, read-out: MIC (Msm ATCC607) Set-3): 3.12 µM and 2.85 µg/mL | MIC ([6]; Mycolicibacterium smegmatis, ATCC607, mean of 3 experiments ± SD, read-out: MIC including standard deviations (Msm ATCC607)): 4.16 µM and 3.8 µg/mL | MIC ([7]; Mycolicibacterium smegmatis, 700084, single determinations, read-out: Msm 700084 MIC): 25 µM (≈ 22.8 µg/mL) | MIC ([7]; Mycolicibacterium smegmatis, 700084, read-out: MIC Msm 700084): 25 µM (≈ 22.8 µg/mL) | MIC ([8]; ATCC35822, M. tuberculosis ATCC 35822, single well replicates): 1.56 µM (≈ 1.42 µg/mL) | MIC ([8]; ATCC35822, Mtb (katG del) ATCC 35822, mean ± SD, n = 3 well replicates): 1.6 µM (≈ 1.46 µg/mL) | MIC Mtb # 11291 [9]: 0.36 µg/mL (≈ 0.394 µM) | MIC ([9]; read-out: MIC Mtb # 11291): 0.39 µM (≈ 0.356 µg/mL) | MIC ([10]; Mycobacterium tuberculosis, mean, n = 2 well replicates): 0.4 µM and 0.4 µg/mL | MIC ([10]; Mycobacterium tuberculosis, single well replicates): 0.39 µM and 0.36 µg/mL | MIC ([10]; single well replicates): 0.39 µM (≈ 0.356 µg/mL) | MIC Mtb # 8673 ([10]; single well replicates): 0.36 µg/mL (≈ 0.394 µM) | MIC ([11]; Enterobacter cloacae, Gram negative, n = 3 well replicates): > 50 µM | MIC ([11]; Enterobacter cloacae, Gram-Negative Bacteria, replicates 1-3): > 45.6 µg/mL | MIC [11, 16]: >50 µM | MIC [12, 16]: >50 µM | MIC ([12]; Salmonella enterica, TYPHIMURIUM, Gram negative, n = 3 well replicates): > 50 µM | MIC ([12]; Salmonella enterica, TYPHIMURIUM, Gram-Negative Bacteria, replicates 1-3): > 45.6 µg/mL | MIC ([13]; Experiment 1, read-out: MIC Mycobacterium avium): 12.5 µM | MIC (µg/ml) Mycobacterium avium [13, 17]: 11.41 µg/mL (≈ 12.5 µM) | MIC ([13]; Experiment 2, three replicate columns, read-out: MIC (µM) Mycobacterium avium): 12.5 µM | MIC ([13]; Mycobacterium avium, Experiment 1, read-out: MIC Mycobacterium avium): 11.4 µg/mL | MIC ([13]; Mycobacterium avium, Experiment 2, three replicate columns, read-out: MIC (µM) Mycobacterium avium): 12.5 µM | MIC ([13]; Mycobacterium avium, Experiment 2, three replicate columns, read-out: MIC (µg/ml) Mycobacterium avium): 11.4 µg/mL | MIC ([13]; Mycobacterium avium, mean ± SD, read-out: MIC Mycobacterium avium): 12.5 µM | MIC (µg/ml) Mycobacterium abscessus [14, 17]: 11.41 µg/mL (≈ 12.5 µM) | MIC ([14]; Experiment 2, three replicate columns, read-out: MIC (µM) Mycobacterium abscessus): 12.5 µM | MIC ([14]; Mycobacteroides abscessus, Experiment 1, read-out: MIC Mycobacterium abscessus): 12.5 µM and 11.4 µg/mL | MIC ([14]; Mycobacteroides abscessus, Experiment 2, three replicate columns, read-out: MIC (µM) Mycobacterium abscessus): 12.5 µM | MIC ([14]; Mycobacteroides abscessus, Experiment 2, three replicate columns, read-out: MIC (µg/ml) Mycobacterium abscessus): 11.4 µg/mL | MIC ([14]; Mycobacteroides abscessus, mean ± SD, read-out: MIC Mycobacterium abscessus): 12.5 µM | % Response ([15]; 0.4 µM): 107.165% and 105.713% and 105.534% and 109.793% and 112.635% and 106.598% and 107.262% and 106.323% and 113.228% | % Response ([15]; 33.3 µM): 86.4131% and 86.1435% and 98.0091% and 93.8962% and 86.1584% and 100.044% and 99.6955% and 103.875% and 103.346% | % Response ([15]; 100.0 µM): 86.569% and 107.836% and 89.4261% and 92.9238% and 99.5573% and 96.5131% and 88.7968% and 92.196% and 104.007% | DC50 ([15]; Measurement 1-6, read-out: DC50, single measurements): > 100000 nM | DC50 ([15]; mean of the measurements, read-out: DC50, Mean): > 100000 nM | degradation of the His6-tagged ClpC1-NTD substrate ([15]; cell-free, result in words): did not cause any degradation
